Paper PMC8070745, “FEN1 Blockade for Platinum Chemo-Sensitization and Synthetic Lethality in Epithelial Ovarian Cancers” (Cancers, 2021)

Assays:
[1] = test system: PEO4 cells; assay: Annexin V apoptosis detection, PEO4; format: cell-based, human; settings: FEN1i plus cisplatin
Protocol: The samples were analysed on a Beckman-Coulter FC500 flow cytometer using a 488nm laser for excitation and emission data for PI collected using a 620nm bandpass filter (FL3) and a 525nm bandpass filter (FL1) for FITC-anti-phospho-Histone H2A.X.
(§1) Apoptosis detection: Annexin V detection kit (556547, BD Biosciences) was used to quantify apoptotic cells. Briefly, cells were trypsinized, washed with PBS and the cellular pellet was re-suspended in Anexin Binding Buffer (1×). Following, FITC Anexin V and Propidium Iodide were added to the cells. After incubation, Anexin binding Buffer (1×) was added to each tube. All the samples were analysed on a Beckman-Coulter FC500 flow cytometer. The percentage of apoptotic cells was determined (late apoptotic = FITC-Annexin V positive, PI positive early apoptotic = FITC-Annexin V positive, PI negative; live cells = FITC-Annexin V negative, PI negative) and compared for untreated and treated samples. Graphical representation and statistical analysis was performed in GraphPad Prism 7 (GraphPad, La Jolla, USA).
3D Spheroid assays: A2780_control and A2780 FEN1_ KO as well as A2780cis_control and A2780cis FEN1_ KO cells were seeded at 4500 cells/cm2 density in ultra-low attachment 6-well plates (174932, Thermo Fisher Scientific) and cultured in 3D Tumorsphere Medium (C28070, PromoCell, UK) at 37°C in a 5% CO2 atmosphere. […]

[2] = test system: FEN1; design: method as in PMID 21062821; settings: read-out: IC50 for FEN1 inhibition; cited from earlier work
[3] = test system: PEO4 cells; assay: Clonogenic assay, PEO4; format: cell-based, human
Protocol: (§2) Clonogenic assay: In the clonogenic assay (colony formation assays), 32 cells/cm2 were seeded in 6-well plates and left at 37°C in a 5% CO2 atmosphere. Cisplatin (5µM) and/or FEN1i (10µM) and/or Importazole (5 µM, Selleckem, S8446 ) were added at the indicated concentrations and the plates were left at 37 °C in a 5% CO 2 atmosphere for 14 days. Later, the plates were washed with PBS, fixed and stained with a crystal violet, acetic acid and methanol solution and colonies were counted. […]

[4] = test system: MRE11 deficient A2780cis cells; assay: FEN1 inhibitor cytotoxicity, MRE11 deficient A2780cis; format: cell-based, human; settings: vs A2780cis control
[5] = test system: PEO1R cells; assay: Clonogenic assay, PEO1R; format: cell-based, human; settings: vs parental PEO1 cells
Protocol: as §2

[6] = test system: PEO1 spheroids; assay: 3D spheroid assay, PEO1; format: cell-based, human; settings: PEO1 spheroids vs PEO4 spheroids
Protocol: (§3) with ice cold PBS and fixed in 70% ethanol for 1h at -20°C. After removal of the fixative solution by centrifugation, cells were stained with 2 µg/ml of phospho-Histone (γH2AX) Ser139 (16202A, Millipore, UK) to detect DSBs.
(§4) Cell cycle progression: Cells were treated with 20 µg/ml RNase A (12091021, Invitrogen) and then 10 µg/ml Propidium Iodide (P4170, Sigma Aldrich) was added to determine the cell cycle distribution. The samples were analysed on a Beckman-Coulter FC500 flow cytometer using a 488nm laser for excitation and emission data for PI collected using a 620nm bandpass filter (FL3) and a 525nm bandpass filter (FL1) for FITC-anti-phospho-Histone H2A.X.
as §1, with “Following, FITC Anexin V and Propidium Iodide were added to the cells. After incubation, Anexin binding Buffer (1×) was added to each tube.” left out, “Graphical representation and statistical analysis was performed in GraphPad Prism 7 (GraphPad, La Jolla, USA).” left out
(§5) To quantify cell viability, LIVE/DEAD Viability/Cytotoxicity Kit (L3224, Thermo Fisher Scientific) was used. […] At least 10 spheroids were measured. […]

[7] = test system: PEO1 cells; assay: Cell cycle progression, PEO1; format: cell-based, human; settings: FEN1i monotherapy
Protocol: as §3
as §4, with “H2A.X. […]” for “H2A.X.”
(§6) Graphical representation and statistical analysis was performed in GraphPad Prism 7 (GraphPad, La Jolla, USA).
(§7) 3D Spheroid assays: A2780_control and A2780 FEN1_ KO as well as A2780cis_control and A2780cis FEN1_ KO cells were seeded at 4500 cells/cm2 density in ultra-low attachment 6-well plates (174932, Thermo Fisher Scientific) and cultured in 3D Tumorsphere Medium (C28070, PromoCell, UK) at 37°C in a 5% CO2 atmosphere. Cells were keep in culture for 7-10 days, toping up with fresh medium every two days until spheroids structures were formed.

[8] = test system: XRCC1 deficient HeLa cells; assay: FEN1 inhibitor cytotoxicity, XRCC1 deficient HeLa; format: cell-based; settings: vs HeLa control
[9] = test system: ATM-deficient HeLa cells; assay: FEN1 inhibitor cytotoxicity, ATM-deficient HeLa; format: cell-based; settings: vs HeLa control
[10] = test system: PEO1 cells; assay: Clonogenic assay, PEO1; format: cell-based, human
Protocol: as §2

[11] = test system: A2780cis cells; assay: Cell cycle progression, A2780cis; format: cell-based, human; settings: FEN1i plus cisplatin
Protocol: as §3
as §4, with “H2A.X. […]” for “H2A.X.”
as §6, §7

[12] = test system: PEO1R spheroids; assay: 3D spheroid assay, PEO1R; format: cell-based, human; settings: vs PEO1 spheroids
Protocol: as §3, §4
as §1, with “Following, FITC Anexin V and Propidium Iodide were added to the cells. After incubation, Anexin binding Buffer (1×) was added to each tube.” left out, “Graphical representation and statistical analysis was performed in GraphPad Prism 7 (GraphPad, La Jolla, USA).” left out
as §5

[13] = test system: A2780cis cells; assay: Clonogenic assay, A2780cis; format: cell-based, human
Protocol: as §2

SMILES | apoptosis [1] | IC50 [2] | effect on cisplatin cytotoxicity ([3]; FEN1i plus cisplatin) | sensitivity to FEN1 inhibitor [4] | sensitivity to FEN1 inhibitor [5] | spheroid sensitivity to FEN1 inhibitor [6] | cell cycle effect [7] | sensitivity to FEN1 inhibitor [8] | sensitivity to FEN1 inhibitor [9] | sensitivity to FEN1 inhibitor ([10]; BRCA2 deficient PEO1 vs BRCA2 proficient PEO4) | cell cycle effect [11] | spheroid sensitivity to FEN1 inhibitor [12] | cytotoxicity of FEN1i monotherapy ([13]; 10 µM) | effect on cisplatin cytotoxicity ([13]; FEN1i 10 µM plus cisplatin) | cisplatin sensitivity [3] | sensitivity to cisplatin [5] | cisplatin sensitivity [10] | spheroid sensitivity to cisplatin [12] | cisplatin sensitivity [13]
Cc1csc2c1c(=O)n(O)c(=O)n2-c1ccccc1 [PTPD, 3-hydroxy-5-methyl-1-phenylthieno [2,3 d]pyrimidine-2,4(1H,3H)-dione] | accumulation of apoptotic cells | 22 nM | potentiated cisplatin cytotoxicity | did not observe increased sensitivity | resistant | hypersensitive to FEN1 inhibition | S-phase and G2/M-phase cell cycle arrest | did not observe any increased sensitivity | did not observe increased sensitivity | more sensitive to FEN1 inhibition in comparison to PEO4 cells | G2/M cell cycle arrest | resistant | non-toxic | significantly enhanced the cytotoxicity of cisplatin | – | – | – | – | –
N.N.[Cl][Pt][Cl] [cisplatin] | – | – | – | – | – | – | – | – | – | – | – | – | – | – | cisplatin resistant | resistant | cisplatin sensitive | resistant | cisplatin-resistant
